Each molecule was assayed against T1, human DPP-IV (Homo sapiens, UniProt P27487) (assay: DPP-IV activity assay (fluorogenic or colorimetric substrate)). Conditions: natural human DPP-IV from human plasma pool or recombinant human DPP-IV; 37° C., pH 7.8.
T1 construct: made in house; host or cells: Pichia pastoris (secreted, purified from culture medium)
Type: biochemical
Protocol: Activity of DPP-IV inhibitors are tested with natural human DPP-IV derived from a human plasma pool or with recombinant human DPP-IV. Human citrate plasma from different donors is pooled, filtered through a 0.2 micron membrane under sterile conditions and aliquots of 1 ml are shock frozen and stored at −120° C. until used. In the colorimetric DPP-IV assay 5 to 10 μl human plasma and in the fluorometric assay 1.0 μl of human plasma in a total assay volume of 100 μl is used as an enzyme source. The cDNA of the human DPP-IV sequence of amino acid 31- to 766, restricted for the N-terminus and the transmembrane domain, is cloned into Pichia pastoris. Human DPP-IV is expressed and purified from the culture medium using conventional column chromatography including size exclusion and anion and cation chromatography. The purity of the final enzyme preparation of Coomassie blue SDS-PAGE is >95%. In the colorimetric DPP-IV assay 20 ng rec.-h DPP-IV and in the fluorometric assay 2 ng rec-h DPP-IV in a total assay volume of 100 μl is used as an enzyme source.
In the fluorogenic assay Ala-Pro-7-amido-4-trifluoromethylcoumarin (Calbiochem No 125510) is used as a substrate. A 20 mM stock solution in 10% DMF/H2O is stored at −20° C. until use. In IC50 determinations a final substrate concentration of 50 μM is used. In assays to determine kinetic parameters as Km, Vmax, Ki, the substrate concentration is varied between 10 μM and 500 μM.
In the colorimetric assay H-Ala-Pro-pNA.HCl (Bachem L-11115) is used as a substrate. A 10 mM stock solution in 10% MeOH/H2O is stored at −20° C. until use. In IC50 determinations a final substrate concentration of 200 μM is used. In assays to determine kinetic parameters as Km, Vmax, Ki, the substrate concentration is varied between 100 μM and 2000 μM.
Fluorescence is detected in a Perkin Elmer Luminescence Spectrometer LS 50B at an excitation wavelength of 400 nm and an emission wavelength of 505 nm continuously every 15 seconds for 10 to 30 minutes. Initial rate constants are calculated by best fit linear regression.
The absorption of pNA liberated from the colorimetric substrate is detected in a Packard SpectraCount at 405 nm continuously every 2 minutes for 30 to 120 minutes. Initial rate constants are calculated by best fit linear regression.
DPP-IV activity assays are performed in 96 well plates at 37° C. in a total assay volume of 100 μl. The assay buffer consists of 50 mM Tris/HCl, pH 7.8 containing 0.1 mg/ml BSA and 100 mM NaCl. […]
IC50 determinations of test compounds are calculated by non-linear best fit regression of the DPP-IV inhibition of at least 5 different compound concentrations. Kinetic parameters of the enzyme reaction are calculated at least 5 different substrate concentrations and at least 5 different test compound concentrations.

T1 sequence (P27487 31-766): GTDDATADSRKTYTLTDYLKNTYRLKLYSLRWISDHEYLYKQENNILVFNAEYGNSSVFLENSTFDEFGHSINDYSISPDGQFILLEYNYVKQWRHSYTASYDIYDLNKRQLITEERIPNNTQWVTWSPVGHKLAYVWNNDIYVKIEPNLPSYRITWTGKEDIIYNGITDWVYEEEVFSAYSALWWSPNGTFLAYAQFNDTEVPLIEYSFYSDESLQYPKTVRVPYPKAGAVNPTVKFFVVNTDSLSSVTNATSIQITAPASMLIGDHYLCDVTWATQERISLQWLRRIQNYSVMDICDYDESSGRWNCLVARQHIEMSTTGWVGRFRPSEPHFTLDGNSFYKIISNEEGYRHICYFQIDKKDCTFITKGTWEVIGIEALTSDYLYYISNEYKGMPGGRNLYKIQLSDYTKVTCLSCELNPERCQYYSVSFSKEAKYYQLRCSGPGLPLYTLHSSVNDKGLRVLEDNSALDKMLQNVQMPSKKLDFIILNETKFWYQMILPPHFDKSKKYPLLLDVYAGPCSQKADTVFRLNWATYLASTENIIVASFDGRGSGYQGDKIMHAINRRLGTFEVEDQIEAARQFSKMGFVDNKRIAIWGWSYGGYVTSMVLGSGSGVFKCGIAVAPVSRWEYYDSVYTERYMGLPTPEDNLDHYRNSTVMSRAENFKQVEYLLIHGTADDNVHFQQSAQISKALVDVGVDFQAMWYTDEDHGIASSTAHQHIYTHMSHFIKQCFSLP

| SMILES | IC50 [nM] |
| --- | --- |
| N[C@@H]1CCCC[C@@H]1c1cc(Cl)ccc1Cl (relative stereo) [Example 7, (cis)-2-(2,5-Dichloro-phenyl)-cyclohexylamine] | 130 |
| Cc1ccc(C)c([C@@H]2CCCC[C@H]2N)c1 (relative stereo) [Example 18, (trans)-2-(2,5-Dimethyl-phenyl)-cyclohexylamine] | 160 |
| N[C@@H]1CCCCC[C@H]1c1cc(Cl)ccc1Cl (relative stereo) [Example 24, (trans)-2-(2,5-Dichloro-phenyl)-cycloheptylamine] | 720 |
| CC1=CC(=O)N([C@@H]2CCCC[C@H]2N)C1 (relative stereo) [Example 30, trans-1-(2-Amino-cyclohexyl)-4-methyl-1,5-dihydro-pyrrol-2-one] | 730 |
